Patent US11696912B2, “Charged ion channel blockers and methods for use” (Nocion Therapeutics, Inc., priority 2019, dated 2023)

Tests used:
[1] = PAMPA artificial lipid membrane permeability; format: in vitro ADME; details: pH 7.4, 4 hours incubation, GIT lipid; for Papp at 4 h, 50 µM: PAMPA
Procedure: The PAMPA assay (pION, Inc., Woburn Mass.) was used to determine the ability of compounds of the invention to cross an artificial lipid membrane by passive diffusion. Test compounds were dissolved in DMSO (10 mM) and diluted 200-fold in buffer (pION Inc., pH 7.4) to provide 50 uM stock solutions. Buffer (150 μL) was added to a UV blank plate and stock solutions (150 μL) were transferred to a UV reference plate. The blank and reference spectrum were read using a spectrophotometer. Stock solutions (200 μL) were added to the donor plate of the PAMPA sandwich plate and an accept plate painted with GIT lipid (pION Inc, 5 μL) was placed on top. Buffer (200 μL) was added to the acceptor plate and the PAMPA sandwich plate was incubated for 4 hours. Aliquots (150 μL) from the acceptor plate were added to a UV plate and read as acceptor spectrum. Aliquots (150 μL) of the donor solutions were added to a UV analysis plate and read as donor spectrum. The permeability coefficient of test compounds was calculated using PAMPA Explorer™ software (version 3.5.0.4) based on the AUC of the reference plate, the donor plate, and the acceptor plate.

NaV1.7 [2] = target: T1, NaV1.7 (Homo sapiens, UniProt Q15858); experiment: Nav1.7 intracellular inhibition, whole cell patch clamp (internal block); format: cell-based; details: compound in internal solution; for inhibition at 10 µM: test concentration of 10 μM
T1 construct: expressed in transfected cells; host or cells: Tetracycline-inducible cell line kept under hygromycin and blasticidin selection
T1 sequence (Q15858 whole entry): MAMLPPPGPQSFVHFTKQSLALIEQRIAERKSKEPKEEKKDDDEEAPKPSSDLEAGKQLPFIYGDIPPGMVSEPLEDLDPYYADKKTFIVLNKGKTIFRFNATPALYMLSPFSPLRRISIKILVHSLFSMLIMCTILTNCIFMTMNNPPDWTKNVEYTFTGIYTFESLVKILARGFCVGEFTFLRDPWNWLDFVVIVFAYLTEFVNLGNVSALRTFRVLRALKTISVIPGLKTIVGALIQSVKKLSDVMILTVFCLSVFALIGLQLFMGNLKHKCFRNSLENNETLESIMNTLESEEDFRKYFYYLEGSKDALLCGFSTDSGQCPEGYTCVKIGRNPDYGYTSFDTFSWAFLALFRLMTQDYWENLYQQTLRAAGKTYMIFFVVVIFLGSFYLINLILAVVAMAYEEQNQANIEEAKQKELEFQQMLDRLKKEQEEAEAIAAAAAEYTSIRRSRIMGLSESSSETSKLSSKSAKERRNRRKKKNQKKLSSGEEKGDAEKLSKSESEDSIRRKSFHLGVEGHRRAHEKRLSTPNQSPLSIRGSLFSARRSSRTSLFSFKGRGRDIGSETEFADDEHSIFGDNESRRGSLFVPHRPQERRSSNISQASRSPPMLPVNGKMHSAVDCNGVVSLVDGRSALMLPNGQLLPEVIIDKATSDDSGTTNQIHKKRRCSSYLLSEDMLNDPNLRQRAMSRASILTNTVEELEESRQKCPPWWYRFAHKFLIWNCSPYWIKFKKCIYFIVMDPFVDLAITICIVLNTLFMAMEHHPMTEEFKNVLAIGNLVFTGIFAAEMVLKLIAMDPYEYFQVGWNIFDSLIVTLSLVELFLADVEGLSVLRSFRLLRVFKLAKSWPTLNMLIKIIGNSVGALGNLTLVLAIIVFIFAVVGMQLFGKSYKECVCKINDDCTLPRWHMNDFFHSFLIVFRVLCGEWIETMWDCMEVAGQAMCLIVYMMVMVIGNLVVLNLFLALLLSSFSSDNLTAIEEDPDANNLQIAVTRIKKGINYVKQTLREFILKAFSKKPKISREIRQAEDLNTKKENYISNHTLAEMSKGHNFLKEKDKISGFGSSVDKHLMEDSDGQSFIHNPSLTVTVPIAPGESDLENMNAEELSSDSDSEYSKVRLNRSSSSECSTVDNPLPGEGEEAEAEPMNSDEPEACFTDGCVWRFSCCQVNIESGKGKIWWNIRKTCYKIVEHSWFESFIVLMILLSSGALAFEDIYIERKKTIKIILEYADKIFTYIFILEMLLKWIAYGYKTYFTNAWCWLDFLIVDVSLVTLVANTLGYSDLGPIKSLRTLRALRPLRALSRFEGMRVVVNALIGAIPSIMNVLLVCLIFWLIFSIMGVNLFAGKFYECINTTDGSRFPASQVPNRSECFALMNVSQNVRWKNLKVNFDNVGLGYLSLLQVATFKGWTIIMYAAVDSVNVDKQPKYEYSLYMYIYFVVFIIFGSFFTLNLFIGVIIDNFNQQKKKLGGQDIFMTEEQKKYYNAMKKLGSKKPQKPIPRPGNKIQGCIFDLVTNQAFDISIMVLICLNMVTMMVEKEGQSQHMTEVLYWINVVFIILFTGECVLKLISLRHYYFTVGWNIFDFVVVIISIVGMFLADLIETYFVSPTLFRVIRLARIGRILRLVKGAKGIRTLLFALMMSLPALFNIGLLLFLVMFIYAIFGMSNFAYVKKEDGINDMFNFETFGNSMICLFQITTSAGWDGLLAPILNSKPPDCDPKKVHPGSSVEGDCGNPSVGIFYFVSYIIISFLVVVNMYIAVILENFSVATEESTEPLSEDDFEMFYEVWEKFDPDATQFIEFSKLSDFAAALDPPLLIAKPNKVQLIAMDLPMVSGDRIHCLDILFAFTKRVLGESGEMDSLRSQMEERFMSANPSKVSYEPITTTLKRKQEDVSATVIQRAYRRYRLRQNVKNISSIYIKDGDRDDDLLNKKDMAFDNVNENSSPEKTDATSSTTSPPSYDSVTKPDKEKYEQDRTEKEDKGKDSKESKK
Procedure: (§1) NaV1.7 was expressed upon induction with tetracycline. Cells were cultured in DMEM containing 10% dialyzed Fetal Bovine Serum (VWR, Radnor, Pa.), 1% Glutamax (VWR, Radnor, Pa.), 1% Penicillin-Streptomycin (VWR, Radnor, Pa.), 100 mg/L Hygromycin (Thermo Fisher Scientific, Waltham, Mass. and 5 mg/L Blasticidin (Alfa Aesar, Haverhill MAI Cells were grown and maintained at 37° C. in a humidified environment containing 10% CO2 in air. Cells were detached from the culture flask for passage and harvested using 0.05% Trypsin-EDTA (Thermo Fisher Scientific, Waltham, Mass.). To induce NaV1.7, cells were induced with tetracycline (0.1-1 μg/mL, IBI Scientific, Peosta, Iowa) the day before recording and plated onto 24-well plates. Cells were washed with DPBS (VWR, Radnor, Pa.), trypsinized and then triturated five times in 10 mL of growth media to break apart cell aggregates. For one 24-well plate, 2 mL of cell suspension was mixed with 23 mL of fresh growth media and 0.1-1 μg/mL tetracycline added. 1 ml of mixed media with cells was then added to each well of a 24-well plate, with a 12 mm coverslip already placed in the bottom of the well. Cells were then incubated in 37° C. and 10% CO2 overnight.
(§2) The intracellular solution contained the following (in mM) CsCl 135, NaCl 10, […], HEPES 10, MgCl2 2, adjusted to pH 7.2 with CsOH. The external solution was a normal Ringer solution containing (in mM) NaCl 155, HEPES 10, glucose 10, KCl 3.5, CaCl2 1.5, MgCl2 1 adjusted to pH 7.4 with NaOH. CsCl was from Alfa Aesar, Haverhill Mass. All other chemicals were from Sigma-Aldrich, St. Louis. Mo. In order to test the degree of internal block by test compounds the compounds were dissolved in internal solution at the indicated test concentration. […] In order to test the degree of external block by test compounds the compounds were dissolved in external solution at the indicated test concentration.
(§3) 18-24 hours after cells were induced with tetracycline, coverslips placed into a chamber filled with Normal Ringer solution at room temperature and the chamber placed on a microscope. Pipettes were pulled from borosilicate glass on a P97 puller (Sutter Instrument, Novato, Calif.) and polished with a MF-830 Microforge (Narishige International USA, Inc, Amityville, N.Y.) to have a resistance of 1.5-2.5 MΩ when filled with CsCl internal solution at room temperature. Healthy cells (those that are round and translucent with no visible blemishes) were chosen for seal formation. A seal was formed between the pipette and the cell, and a brief pulse of suction used to “break in” and establish the whole-cell configuration. The membrane potential was held at −100 mV before the voltage protocol began. Only cells with series resistance between 1.5-5 M were retained for analysis. The voltage protocol was as follows: Cells were held at −100 mV for 12 ms followed by a hyperpolarizing step to −105 mV for 12 ms to monitor the leak. Cells were then stepped back to −100 mV for 40 ms. Cells were then depolarized to −20 mV for 10 ms and returned to −100 mV for 26 ms.
(§4) Once the recording was started, the voltage protocol was run at 30 second intervals for 5 minutes to get a stable baseline. This was followed by four 30-second periods of 5 Hz stimulation of the same voltage protocol separated by 1 minute of rest which was then followed by 0.33 Hz stimulation after the last train. Currents were recorded using PatchMaster software with Heka EPC10 (HEKA Electronics, Lambrecht, Germany). Only cells with inward current amplitudes at −20 mV between 400 pA and 4 nA were accepted. In addition, cells having leak currents greater than 10% of their current amplitudes were discarded.
(§5) The data was plotted using the Patchmaster software (HEKA Electronics, Lambrecht, Germany) and analyzed by plotting the minimum current during the voltage step to −20 mV (peak inward current) as a function of time. […]

NaV1.7 [3] = target: T1, NaV1.7; experiment: Nav1.7 extracellular inhibition, whole cell patch clamp (external block); format: cell-based; details: compound in external solution; for inhibition at 10 µM: read-out: Nav1.7 extracellular inhibition, extracellular inhibition, read-out: Nav1.7 Intracellular Inhibition; for inhibition at 30 µM: test concentration of 30 μM
Procedure: as §1, §2, §3
as §4, with “by” for “by four 30-second periods of”, “run until the end” for “separated by 1 minute”, “experiment. […] The test compound” for “rest which”, “added for 5 minutes before washing out with normal Ringer's solution.” for “then followed by 0.33 Hz stimulation after the last train.”
as §5, with “time. To determine the % block produced by test compounds applied externally the following was done.” for “time.”

| Compound | PAMPA (10^−6cm/s) [1] | inhibition at 3 µM (NaV1.7 [2]) [%] | inhibition at 10 µM (NaV1.7 [3]) [%] | Papp at 4 h, 50 µM [1] [×10⁻⁶ cm/s] | inhibition at 10 µM (NaV1.7 [2]) [%] | inhibition at 30 µM (NaV1.7 [3]) [%] |
| --- | --- | --- | --- | --- | --- | --- |
| Cc1csc(C(=O)OC(C)(C)C)c1NC(=O)C[n+]1cccc(-c2ccccc2)c1.[Br-] [A] | + ((<0.1 10^−6 cm/s)) | 70 to 90 | 40 to 70 |  |  |  |
| CCCOC(=O)c1scc(C)c1NC(=O)C[n+]1cccn1C1CCCCC1.[Br-] [B] | + ((<0.1 10^−6 cm/s)) | > 90 | < 40 |  |  |  |
| CCOC(=O)c1scc(C)c1NC(=O)C[n+]1cccn1C1CCCCC1 [C] | + ((<0.1 10^−6 cm/s)) | 70 to 90 | < 40 |  |  |  |
| COC(=O)c1scc(C)c1NC(=O)C[n+]1cccn1C1CCCCC1 [Compound 22] | + ((<0.1 10^−6 cm/s)) | 40 to 70 | < 40 | < 1 | > 70 | < 30 |
| COC(=O)c1scc(C)c1NC(=O)C[n+]1cccc(-c2ccccc2)c1 [Compound 23] | + ((<0.1 10^−6 cm/s)) | 40 to 70 | < 40 | < 1 | > 70 | < 30 |
| Cc1cccc(C(=O)OC(C)(C)C)c1NC(=O)C[n+]1cccn1C1CCCCC1.[Br-] [D] | + ((<0.1 10^−6 cm/s)) | 70 to 90 | < 40 |  |  |  |
